Our source for the IC50 values is patent US20110098309A1, “METHODS OF INHIBITING THE FORMATION OF AMYLOID-BETA DIFFUSABLE LIGANDS USING ACYLHYDRAZIDE COMPOUNDS” (priority 2007, published 2011).

pIC50: −log10 of the molar value.

Sequence of Aβ1-42 (P05067 672-713 limits assumed): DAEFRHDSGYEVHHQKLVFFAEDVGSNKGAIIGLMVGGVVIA

The experiment has as its target Aβ1-42 (Homo sapiens, UniProt P05067). As to the kind of experiment: FRET assay of Aβ1-42 oligomer (ADDL) assembly inhibition. Type of experiment: biochemical. As to conditions: 0.2 μM FITC-Aβ(1-42) and 0.8 μM Aβ(1-42), 37° C., six concentrations from about 10 μM to about 0.03 μM. The gist of the method: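 Fluorescein-quenching FRET read with 0.2 μM FITC-Aβ(1-42) plus 0.8 μM Aβ(1-42) in 25 mM MOPS-Tris pH 8.0, 100 mM MgCl2, 37° C. Compound tested at six concentrations from about 10 μM down to about 0.03 μM. Fluorescence read every five minutes over about three hours; inhibition seen as absent or attenuated quenching.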
The term pIC50 denotes −log10 of the IC50, conventionally taken in molar units. A high value points to a low IC50. `O=C(C/C(=N/NC(=O)c1sc2ccccc2c1Cl)C(F)(F)F)c1cccs1` [Compound 14, 3-chloro-N′-(1,1,1-trifluoro-4-oxo-4-(thiophen-2-yl)butan-2-ylidene)benzo[b]thiophene-2-carbohydrazide] showed a pIC50 of 5.02.

`O=C(N/N=C(/c1cc(Cl)ccc1O)C(F)(F)F)c1ccccc1O` [Compound 102, N′-(1-(5-chloro-2-hydroxyphenyl)-2,2,2-trifluoroethylidene)-2-hydroxybenzohydrazide]: the pIC50 is 4.47.

Turning to `COc1ccc(O)c(/C=N/NC(=O)c2cc(OC)ccc2O)c1` [Compound 82, 2-hydroxy-N′-(2-hydroxy-5-methoxy-benzylidene)-5-methoxy-benzohydrazide], the negative logarithm of the IC50 (pIC50) is 4.82. Under `Nc1ccc(Cl)cc1/C=N/NC(=O)c1ccccc1O` [Compound 65, N′-(2-amino-5-chloro-benzylidene)-2-hydroxy-benzohydrazide] stands 5.12; under `O=C(N/N=C/c1cc(Cl)ccc1O)c1ccccc1O` [Compound 59, N′-(5-chloro-2-hydroxy-benzylidene)-2-hydroxy-benzohydrazide], 5.19; under `Cc1ccc(C(=O)N/N=C(/CC(=O)c2cccs2)C(F)(F)F)cc1` [Compound 33, 4-methyl-N′-(1,1,1-trifluoro-4-oxo-4-(thiophen-2-yl)butan-2-ylidene)benzohydrazide], 4.39. `O=C(N/N=C/c1ccc2ccccc2c1O)c1ccccc1O` [Compound 72, 2-hydroxy-N′-((1-hydroxy-naphthalen-2-yl)methylene)benzohydrazide] gave a pIC50 of 4.98. `O=C(C/C(=N/NC(=O)c1ccccc1O)C(F)(F)F)c1cc2ccccc2s1` [Compound 8, N′-(4-(benzo[b]thiophen-2-yl)-1,1,1-trifluoro-4-oxobutan-2-ylidene)-2-hydroxy benzohydrazide]: the pIC50 was 5.11. On to `O=C(N/N=C(/CC(=O)c1cccs1)C(F)(F)F)c1ccc(Br)cc1` [Compound 27, 4-bromo-N′-(1,1,1-trifluoro-4-oxo-4-(thiophen-2-yl)butan-2-ylidene)benzohydrazide], for which the pIC50 was 4.73.

In the case of `COc1ccc(O)c(/C=N/NC(=O)c2ccc(-n3cccc3)cc2O)c1` [Compound 36, 2-hydroxy-N′-(2-hydroxy-5-methoxy-benzylidene)-4-(1H-pyrrol-1-yl) benzohydrazide], the pIC50 was 6.00. Compound `O=C(N/N=C/c1cc(Br)cc(Br)c1O)c1ccccc1O` [Compound 42, N′-(3,5-dibromo-2-hydroxybenzylidene)-2-hydroxybenzohydrazide] gave a pIC50 of 5.55.

`C/C(CC(=O)N1CCC(c2ccccc2)CC1)=N\NC(=O)c1ccccc1O` [Compound 29, 2-hydroxy-N′-(4-oxo-4-(4-phenylpiperidin-1-yl)butan-2-ylidene)benzohydrazide] gave a pIC50 of 4.57. On to `O=C(N/N=C/c1c(O)cccc1O)c1ccccc1O` [Compound 41, N′-(2,6-dihydroxybenzylidene)-2-hydroxy benzohydrazide], for which the pIC50 is 5.64. As for `CCOc1ccc(O)c(/C=N/NC(=O)c2ccccc2O)c1` [Compound 85, N′-(5-ethoxy-2-hydroxy-benzylidene)-2-hydroxy-benzohydrazide], the pIC50 is 4.80. Under `O=C(C/C(=N/NC(=O)c1cc2ccccc2s1)C(F)(F)F)c1cccs1` [Compound 28, N′-(1,1,1-trifluoro-4-oxo-4-(thiophen-2-yl)butan-2-ylidene)benzo[b]thiophene-2-carbohydrazide] stands 4.71; under `CS(=O)(=O)Nc1ccccc1C(=O)N/N=C(/CC(=O)c1cccs1)C(F)(F)F` [Compound 5, N-(2-(2-(1,1,1-trifluoro-4-oxo-4-(thiophen-2-yl)butan-2-ylidene)hydrazine-carbonyl)phenyl)methanesulfonamide], 5.22; under `O=C(C/C(=N\NC(=O)c1ccccc1O)C(F)(F)F)c1ccco1` [Compound 1, 2-hydroxy-N′-(1,1,1-trifluoro-4-(furan-2-yl)-4-oxobutan-2-ylidene)benzohydrazide], 5.38. `COc1ccc(O)c(/C=N/NC(=O)c2cc(C)ccc2O)c1` [Compound 73, 2-hydroxy-N′-(2-hydroxy-5-methoxy-benzylidene)-5-methyl-benzohydrazide]: the pIC50 is 4.98.

Consider `C/C(=N\NC(=O)c1ccccc1O)c1ccc(C)cc1` [Compound 79, 2-hydroxy-N′-(1-p-tolylethylidene) benzohydrazide], for which the negative logarithm of the IC50 (pIC50) is 4.88. Turning to `O=C(N/N=C/c1c(O)cccc1Br)c1ccccc1O` [Compound 45, N′-(2-bromo-6-hydroxybenzylidene)-2-hydroxybenzo-hydrazide], the pIC50 was 5.48.
